From ChEMBL document CHEMBL1240317, “Probing cell-division phenotype space and Polo-like kinase function using small molecules” (Nat Chem Biol, 2006)
The source made the active and inactive calls. The rule behind the calls is not given here.

Key:
Assay type in all cases: functional, cell-based
Conditions in all cases: Chlorocebus aethiops
BSC-1 [1] = assay: Induction of severe microtubule disruption in african green monkey BSC1 cells at 20 uM after 4 hrs by immunocytochemistry
BSC-1 [2] = assay: Induction of reduced mitotic index in african green monkey BSC1 cells at 20 uM after 4 hrs by immunocytochemistry
BSC-1 [3] = assay: Induction of deffects in mitotic spindle in african green monkey BSC1 cells at 20 uM after 4 hrs by immunocytochemistry

SMILES	Activity (BSC-1 [1])	Activity (BSC-1 [2])	Activity (BSC-1 [3])
O=[N+]([O-])c1cnc(Nc2ccncc2)nc1NC1CCCC1	Active		
CCCCNc1nc(Nc2ccc(C(C)(C)C)cc2)ncc1[N+](=O)[O-]	Active	Active	Active
O=[N+]([O-])c1cnc(Nc2ccc3c(c2)CCC3)nc1Nc1ccc(Cl)c(Cl)c1	Active	Active	Active
c1ccc2cc(Nc3nccc(Nc4ccc5c(c4)CCC5)n3)ccc2c1	Active	Active	Active
CC(C)(C)c1ccc(Nc2ncc([N+](=O)[O-])c(Nc3ccc(Cl)c(Cl)c3)n2)cc1	Active	Active	Active
O=[N+]([O-])c1cnc(NC(CO)Cc2ccccc2)nc1Nc1ccc(Cl)c(Cl)c1 (centres undefined)	Active	Active	Active
CCN(CC)CCCC(C)Nc1ncc([N+](=O)[O-])c(Nc2ccc3ncsc3c2)n1 (centres undefined)	Active	Active	Active
CC(=O)Nc1ccc(Nc2ncc([N+](=O)[O-])c(Nc3ccc4ncsc4c3)n2)cc1	Active	Active	Active
CN1CCN(c2ccnc(Sc3cccc(Cl)c3)n2)CC1			Active
CC(=O)Nc1ccc(Nc2ccnc(Nc3ccc(Cl)cc3Cl)n2)cc1	Active		
CC(=O)Nc1ccc(Nc2ccnc(NC(CO)Cc3ccccc3)n2)cc1 (centres undefined)	Active	Active	Active
CC(=O)Nc1ccc(Nc2ccnc(Nc3ccc4ccccc4c3)n2)cc1	Active		
O=[N+]([O-])c1cnc(-n2ccnc2-c2ccccc2)nc1Nc1ccc2ncsc2c1			Active
OCC(Cc1ccccc1)Nc1nccc(Nc2ccc3c(c2)OCO3)n1 (centres undefined)	Active	Active	Active
CC(C)(C)c1ccc(Nc2ncc([N+](=O)[O-])c(Nc3ccccc3C(N)=O)n2)cc1	Active		
CC(=O)Nc1ccc(Nc2ncc([N+](=O)[O-])c(Sc3cccc(Cl)c3)n2)cc1	Active	Active	Active
CC(=O)Nc1ccc(Nc2ccnc(Nc3ccc(C(C)(C)C)cc3)n2)cc1	Active		
O=C(c1ccccc1)c1ccccc1Nc1ncc([N+](=O)[O-])c(Nc2ccc(Cl)c(Cl)c2)n1	Active	Active	Active
O=[N+]([O-])c1cnc(Nc2ccc(Cl)c(Cl)c2)nc1Nc1ccc2[nH]ccc2c1	Active	Active	Active
O=[N+]([O-])c1cnc(Nc2ccc(Cl)c(Cl)c2)nc1Nc1ccc2ncsc2c1			Active
CC(=O)Nc1ccc(Nc2ncc([N+](=O)[O-])c(NC3CCCC3)n2)cc1		Active	
CC(=O)Nc1ccc(Nc2ccnc(Nc3ccc4ncsc4c3)n2)cc1	Active		
CCCCNc1nc(Nc2ccc3ccccc3c2)ncc1[N+](=O)[O-]	Active	Active	Active
c1cc(Nc2ccc3c(c2)OCO3)nc(Nc2ccc3ncsc3c2)n1	Active		

SMILES	Activity (BSC-1 [1])	Activity (BSC-1 [2])	Activity (BSC-1 [3])
c1ccc(-c2nccn2-c2ccnc(Nc3ccc4ncsc4c3)n2)cc1	Active		
O=C(c1ccccc1)c1ccccc1Nc1nc(NC2CCCC2)ncc1[N+](=O)[O-]	Active	Active	Active
COc1ccc(Nc2ncc([N+](=O)[O-])c(Nc3ccc4[nH]ccc4c3)n2)cc1	Active		
O=[N+]([O-])c1cnc(NCc2cccs2)nc1Nc1ccc(Cl)c(Cl)c1	Active	Active	Active
c1ccc(-c2nccn2-c2ccnc(NC3CCCC3)n2)cc1	Active	Active	Active
CCCCNc1ncc([N+](=O)[O-])c(Nc2ccccc2C(N)=O)n1	Active	Active	Active
CC(C)(Nc1ncc([N+](=O)[O-])c(NC2CCCC2)n1)c1ccccc1	Active	Active	Active
O=[N+]([O-])c1cnc(Nc2ccc3ccccc3c2)nc1Nc1ccc2ncsc2c1			Active
O=[N+]([O-])c1cnc(NC2CCCC2)nc1Nc1ccc2ncsc2c1	Active	Active	Active
OCC1CCCN1c1nccc(Nc2ccc3c(c2)OCO3)n1 (centres undefined)	Active	Active	Active
CC(C)(C)c1ccc(Nc2ncc([N+](=O)[O-])c(Nc3ccc4ncsc4c3)n2)cc1			Active
O=[N+]([O-])c1cnc(Nc2ccc3[nH]ccc3c2)nc1Nc1ccc2ncsc2c1			Active
O=C(c1ccccc1)c1ccccc1Nc1nc(Nc2ccc3ncsc3c2)ncc1[N+](=O)[O-]	Active	Active	Active
O=[N+]([O-])c1cnc(Nc2ccc3[nH]ccc3c2)nc1NC1CCCC1	Active	Active	Active
CC(=O)Nc1ccc(Nc2ncc([N+](=O)[O-])c(Nc3ccc(Cl)c(Cl)c3)n2)cc1	Active	Active	Active
CC(C)(C)c1ccc(Nc2ncc([N+](=O)[O-])c(Sc3cccc(Cl)c3)n2)cc1	Active	Active	Active
CCN(CC)CCCC(C)Nc1ncc([N+](=O)[O-])c(NC2CCCC2)n1 (centres undefined)	Active	Active	Active
O=[N+]([O-])c1cnc(NC2CCCC2)nc1Nc1ccc2[nH]ccc2c1	Active	Active	Active
O=C(c1ccccc1)c1ccccc1Nc1nc(Nc2ccc3ccccc3c2)ncc1[N+](=O)[O-]	Active	Active	Active
CN1CCN(c2nccc(Nc3ccc4c(c3)OCO4)n2)CC1	Active	Active	Active
O=C(c1ccccc1)c1ccccc1Nc1nc(NCCCN2CCCC2=O)ncc1[N+](=O)[O-]			Active
CC(=O)Nc1ccc(Nc2ccnc(NCc3cccs3)n2)cc1	Active	Active	Active
CC(C)(C)c1ccc(Nc2ncc([N+](=O)[O-])c(NC3CCCC3)n2)cc1	Active	Active	Active
NC(=O)c1ccccc1Nc1nc(NC2CCCC2)ncc1[N+](=O)[O-]	Active	Active	Active

SMILES	Activity (BSC-1 [1])	Activity (BSC-1 [2])	Activity (BSC-1 [3])
O=[N+]([O-])c1cnc(-n2ccnc2-c2ccccc2)nc1NC1CCCC1	Active	Active	Active
CN1CCN(c2ncc([N+](=O)[O-])c(Nc3ccccc3C(=O)c3ccccc3)n2)CC1	Active	Active	Active
CN1CCN(c2ccnc(NCc3cccs3)n2)CC1	Active	Active	Active
CCCCNc1ncc([N+](=O)[O-])c(NC2CCCC2)n1	Active	Active	Active
O=[N+]([O-])c1cnc(NC2CCCC2)nc1Sc1cccc(Cl)c1	Active	Active	Active
CC(=O)Nc1ccc(Nc2nccc(Nc3ccc4c(c3)CCC4)n2)cc1	Active	Active	Active
O=C(c1ccccc1)c1ccccc1Nc1nc(Nc2ccc(Cl)c(Cl)c2)ncc1[N+](=O)[O-]	Active	Active	Active
O=[N+]([O-])c1cnc(Nc2cccc3ncccc23)nc1Nc1ccc2ncsc2c1	Active		
O=C(c1ccccc1)c1ccccc1Nc1nc(NC(CO)Cc2ccccc2)ncc1[N+](=O)[O-] (centres undefined)			Active
c1cc(Nc2nccc(Nc3ccc4c(c3)CCC4)n2)ccn1	Active	Active	Active
Clc1ccc(Nc2nccc(Nc3ccc4c(c3)CCC4)n2)cc1Cl			Active
O=[N+]([O-])c1cnc(Cl)nc1NC1CCCC1			Active
COc1cc(Nc2ncc([N+](=O)[O-])c(Nc3ccccc3C(N)=O)n2)cc(OC)c1OC	Active		
CN1CCN(c2ccc(Nc3ncc([N+](=O)[O-])c(Nc4ccccc4C(N)=O)n3)cc2)CC1	Active		
CCCCNc1ncc([N+](=O)[O-])c(Nc2ccc3[nH]ccc3c2)n1	Active	Active	Active
O=C(c1ccccc1)c1ccccc1Nc1nc(NCc2cccs2)ncc1[N+](=O)[O-]		Active	
O=C(c1ccccc1)c1ccccc1Nc1nc(Nc2ccc3c(c2)CCC3)ncc1[N+](=O)[O-]	Active	Active	Active
CC(=O)Nc1ccc(Nc2nccc(Nc3ccc4[nH]ccc4c3)n2)cc1	Active		
CC(C)(Nc1ncc([N+](=O)[O-])c(Nc2ccccc2C(N)=O)n1)c1ccccc1	Active		
Cc1cc(Nc2cc(C3CC3)[nH]n2)nc(Nc2ccc(CC#N)cc2)n1	Active		
CCCCNc1nc(Nc2ccc(NC(C)=O)cc2)ncc1[N+](=O)[O-]			Active
CC(C)(C)c1ccc(Nc2nccc(-n3ccnc3-c3ccccc3)n2)cc1			Active
CC(=O)Nc1ccc(Nc2ncc([N+](=O)[O-])c(Nc3ccccc3C(N)=O)n2)cc1			Active
COc1cc(Nc2ncc([N+](=O)[O-])c(Nc3ccc4c(c3)OCO4)n2)cc(OC)c1OC	Active		
